Assay results as given in article PMC8703611, “Cyclic Peptides from the Soft Coral-Derived Fungus Aspergillus sclerotiorum SCSIO 41031” (Marine Drugs, 2021).

Assays:
[1] = Cytotoxicity against HONE1, CCK-8 method; assay type: cell-based, human; conditions: CCK-8, OD at 450 nm, 72 h, average values of three parallel experiments
Method: (§1) The THP-1, HONE1, and HONE1-EBV cell lines were obtained from Sun Yat-sen University Cancer Center. The cytotoxic activity was determined by the CCK-8 (Dojindo) method. Briefly, THP-1, HONE1, and HONE1-EBV cells were cultured in DMEM media supplemented with 10% […] (FBS), respectively. The cells were seeded at a density of 400 to 800 cells/well in 384-well plates and then incubated with the compounds in a gradient concentration (50.0, 10.0, 2.0, 0.4, and 0.08 μM) or with a solvent control for 72 h, followed by the addition of CCK-8 reagent. The OD value of each well was measured at 450 nm using a SpectraMax M5 Microplate Reader (Molecular Devices). Sorafenib functioned as the positive control. Dose–response curves were plotted to determine IC50 based upon the average values of three parallel experiments using Prism 5.0.

acetylcholinesterase = acetylcholinesterase (Homo sapiens, UniProt P22303); assay: AChE inhibition, modified Ellman's method; assay type: biochemical
Method: The AChE inhibition activity was measured based on the modified Ellman’s method. Tacrine was used as positive drug. The inhibition rates of AChE were calculated using Origin 8.0 software.

[2] = Cytotoxicity against HONE1-EBV, CCK-8 method; assay type: cell-based, human; conditions: CCK-8, OD at 450 nm, 72 h, average values of three parallel experiments
Method: as §1

Chain of acetylcholinesterase (P22303 32-614): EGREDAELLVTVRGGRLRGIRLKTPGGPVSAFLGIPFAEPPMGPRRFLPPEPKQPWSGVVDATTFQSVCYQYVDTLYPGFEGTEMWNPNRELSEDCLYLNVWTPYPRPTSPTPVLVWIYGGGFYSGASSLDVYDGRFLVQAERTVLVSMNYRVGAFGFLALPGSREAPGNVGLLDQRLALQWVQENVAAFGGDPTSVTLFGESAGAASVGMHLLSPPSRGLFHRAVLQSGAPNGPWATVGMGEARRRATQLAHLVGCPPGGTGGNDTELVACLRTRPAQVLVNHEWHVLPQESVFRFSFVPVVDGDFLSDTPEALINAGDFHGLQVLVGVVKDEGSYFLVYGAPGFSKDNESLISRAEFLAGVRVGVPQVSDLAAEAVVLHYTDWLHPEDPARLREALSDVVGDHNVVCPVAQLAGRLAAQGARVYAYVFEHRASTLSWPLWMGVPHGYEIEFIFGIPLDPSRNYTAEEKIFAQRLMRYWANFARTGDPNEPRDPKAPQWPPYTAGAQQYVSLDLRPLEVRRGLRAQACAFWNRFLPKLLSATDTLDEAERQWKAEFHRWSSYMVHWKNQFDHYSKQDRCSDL

CCCCCCCC[C@H](C)[C@@H]1CC(=O)NCC(=O)N[C@@H](C(C)C)C(=O)N[C@H](CC(C)C)C(=O)N[C@@H](C)C(=O)N[C@@H](C(C)C)C(=O)O1 [Compound 4, Scopularide I]
IC50 [1]: 13 µM
IC50 (acetylcholinesterase): 15.6 µM
IC50 [2]: 10.1 µM
